Experimental data: article PMC8066102, “Metabolic Profiles of New Unsymmetrical Bisacridine Antitumor Agents in Electrochemical and Enzymatic Noncellular Systems and in Tumor Cells” (Pharmaceuticals, 2021)
Read-outs that look alike come from different tables or passages of the source.

Tests used:
[1] = pKa determination by spectrophotometric titration; type: physicochemical; conditions: 23 aqueous buffer solutions, pH 1.5-11, pH 1.5, 0.02 mM compound, pH 1.5-11, UV-vis, principal component analysis
Procedure: The concentration of the compounds in the working solutions was 0.02 mM, pH was changed in the range 1.5–11 at 23 buffer solutions: 1.5–3.5 (interval 0.5 unit—HCl solution), 4.0–5.5 (interval 0.5 unit—acetic buffer), 6.1–7.5 (interval 0.2 unit—PIPES (2-[4-(2-sulphoethyl)piperazine-1-ethanesulphonic acid) buffer), 7.7–8.1 (interval 0.2 unit—HEPES (4-(2-hydroxyethyl)piperazine-1-ethanesulphonic acid) buffer) and 9–11 (interval 1 unit—borate buffer).
PKa values for tested UAs were determined by spectrophotometric titration using a Cary 300 Bio instrument. The UV-vis spectra obtained for all solutions in the examined pH range were subjected to the chemometric technique principal component analysis. This procedure makes it possible to determine the number of spectral forms present in the tested samples and to estimate the mole fractions for each of them. To determine pKa values the relationships between the mole fractions of individual spectral forms and the pH of the samples were used. The first approximation of pKa values have been assigned to the values of pH corresponding to the central points of each titration wave. Numerical optimization by the adjustment of pKa values to the obtained molar fractions allowed to refine these values and the cross-validation procedure let to determine their standard deviations.

[2] = target: T1, P4503A4 (Homo sapiens, UniProt P08684); assay: Metabolism with human recombinant P4503A4; type: in vitro ADME; conditions: 0.05 mM compound, 1 mg/mL P4503A4, 2 mM NADPH, 30 min
T1 construct: purchased Cypex, Dundee, Scotland, UK (through Tebu-Bio); host or cells: Escherichia coli (Bactosomes)
Procedure: UT-RLMs (2 mg/mL) and P450-RLMs induced with Dex, 3MC, or PB and recombinant P4502C19 and P4503A4 (1 mg/mL) were assayed for activity toward tested UAs as follows. The proteins were incubated in a buffer containing 0.1 M HEPES (pH 7.4), 2 mM MgCl2 with 0.05 mM substrate in total volume 70 µL. Substrates were added also in buffer HEPES, pH 7.4. Reactions were started by the addition of NADPH (2 mM) and were incubated for specified time at 37 °C. The reactions were stopped by the addition of 8.75 µL of 1 M HCl, followed by centrifugation at 13,400 rpm for 10 min to pellet the denatured protein. The supernatant fractions were used for high-performance liquid chromatography (HPLC) analysis. Control reactions omitting substrate were run with each assay. All incubations were performed in two repetitions.

[3] = target: T2, UGT 1A10 (Homo sapiens, UniProt Q9HAW8); assay: Glucuronidation with recombinant UGT1A10; type: in vitro ADME; set-up: key to Glucuronidation potency UGT 1A10: −: the lack of UGT activity; +: the significant UGT activity; conditions: 0.05 mM compound; for Glucuronidation potency UGT 1A10: 1 mg/mL UGT, 5 mM UDPGA
T2 construct: His tag; purchased Corning, NY, USA (through DIAG-MED, Poland); host or cells: baculovirus-insect cells (Supersomes); Results say Sf9 cells
T2 sequence (Q9HAW8 26-530): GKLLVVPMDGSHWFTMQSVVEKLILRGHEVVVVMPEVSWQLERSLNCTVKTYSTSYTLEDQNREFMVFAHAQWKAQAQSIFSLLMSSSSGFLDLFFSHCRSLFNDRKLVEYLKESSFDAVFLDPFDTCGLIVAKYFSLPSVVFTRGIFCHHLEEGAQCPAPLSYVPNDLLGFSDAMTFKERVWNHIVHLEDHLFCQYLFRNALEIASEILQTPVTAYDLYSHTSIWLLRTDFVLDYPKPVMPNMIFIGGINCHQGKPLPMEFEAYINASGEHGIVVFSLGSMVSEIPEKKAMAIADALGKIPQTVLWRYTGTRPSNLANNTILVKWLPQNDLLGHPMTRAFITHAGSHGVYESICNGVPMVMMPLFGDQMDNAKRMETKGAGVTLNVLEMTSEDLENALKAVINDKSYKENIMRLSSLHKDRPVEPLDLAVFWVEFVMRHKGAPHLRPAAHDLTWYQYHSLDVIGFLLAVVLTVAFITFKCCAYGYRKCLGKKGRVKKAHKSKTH
Procedure: (§1) Recombinant UGT isoform protein (1 mg/mL) was assayed for activity toward tested UAs as follows. The proteins were incubated in a buffer containing 0.1 M HEPES (pH 7.4), 8 mM MgCl2 and alamethicin (25 μg/mL) with either 0.05 mM substrate in total volume 70 µL (alamethicin was added to permeabilize the membrane). Substrates were also in buffer HEPES, pH 7.4. Reactions were started by the addition of UDPGA (5 mM) and were incubated for specified time at 37 °C. The reactions were stopped by the addition of 8.75 µL of 1 M HCl, followed by centrifugation at 13400 rpm for 10 min to pellet the denatured protein. The supernatant fractions were used for HPLC analysis. Control reactions omitting substrate were run with each assay. All incubations were performed in two repetitions.

[4] = target: T3, UGT2B15 (Homo sapiens, UniProt P54855); assay: Glucuronidation with recombinant UGT2B15; type: in vitro ADME; set-up: key: −: the lack of UGT activity; +: the significant UGT activity; conditions: 0.05 mM compound, 1 mg/mL UGT, 5 mM UDPGA
T3 construct: purchased Corning, NY, USA (through DIAG-MED, Poland); host or cells: baculovirus-insect cells (Supersomes)
T3 sequence (P54855 24-530): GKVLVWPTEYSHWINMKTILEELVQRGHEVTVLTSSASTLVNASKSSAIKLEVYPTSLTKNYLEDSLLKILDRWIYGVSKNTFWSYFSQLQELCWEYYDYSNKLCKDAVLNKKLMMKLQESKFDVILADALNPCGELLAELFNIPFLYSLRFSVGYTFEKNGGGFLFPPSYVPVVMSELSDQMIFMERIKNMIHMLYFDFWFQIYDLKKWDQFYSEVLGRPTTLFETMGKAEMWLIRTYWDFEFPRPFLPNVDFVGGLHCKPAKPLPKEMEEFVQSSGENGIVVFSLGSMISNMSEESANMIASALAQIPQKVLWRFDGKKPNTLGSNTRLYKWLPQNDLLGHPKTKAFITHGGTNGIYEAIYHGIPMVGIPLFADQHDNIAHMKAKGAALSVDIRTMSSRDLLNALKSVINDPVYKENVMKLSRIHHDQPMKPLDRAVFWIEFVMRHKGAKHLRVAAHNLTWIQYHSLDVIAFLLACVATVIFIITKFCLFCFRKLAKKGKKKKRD
Procedure: as §1

T1 sequence (P08684 whole entry): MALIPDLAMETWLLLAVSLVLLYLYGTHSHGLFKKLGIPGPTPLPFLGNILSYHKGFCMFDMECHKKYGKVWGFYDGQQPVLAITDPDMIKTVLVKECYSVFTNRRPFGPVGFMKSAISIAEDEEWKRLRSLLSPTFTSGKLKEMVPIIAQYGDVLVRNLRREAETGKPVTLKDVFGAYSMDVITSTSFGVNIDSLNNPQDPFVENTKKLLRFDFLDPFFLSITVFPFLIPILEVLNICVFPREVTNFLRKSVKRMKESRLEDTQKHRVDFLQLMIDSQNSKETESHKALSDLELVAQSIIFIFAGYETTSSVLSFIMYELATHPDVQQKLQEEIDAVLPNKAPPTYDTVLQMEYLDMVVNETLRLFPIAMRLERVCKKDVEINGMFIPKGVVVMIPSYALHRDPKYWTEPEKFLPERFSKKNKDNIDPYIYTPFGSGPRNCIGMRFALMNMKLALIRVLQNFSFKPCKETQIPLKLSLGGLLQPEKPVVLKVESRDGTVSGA

pKa ([1]; read-out: pKa 1) | pKa ([1]; read-out: pKa 2) | pKa ([1]; read-out: pKa 3) | substrate transformed [2] | Glucuronidation potency UGT 1A10 [3] | Glucuronidation potency UGT 2B15 [4] | rate of metabolism (glucuronidation) with UGT1A10 ([3]; 1 mg/mL UGT1A10, 5 mM UDPGA, 120 min) [%] | SMILES
2.22 | 6.01 | 7.41 | 72% | − | − |  | CN(CCCNc1c2ccccc2nc2cccc([N+](=O)[O-])c12)CCCNc1ccc2ncn3c4ccccc4c(=O)c1c23 [C-2028]
2.33 | 6.37 | 7.5 | 30% | + | − | 18 | Cc1ccc([N+](=O)[O-])c2c(NCCCN(C)CCCNc3ccc4ncn5c6ccc(O)cc6c(=O)c3c45)c3ccccc3nc12 [C-2045]
2.19 | 6.19 | 7.49 | approximately 77% | − | − |  | Cc1ccc([N+](=O)[O-])c2c(NCCCN(C)CCCNc3ccc4ncn5c6ccccc6c(=O)c3c45)c3ccccc3nc12 [C-2053]
